Test results taken from patent US20220259235A1, “EGFR Inhibitor, Composition, and Preparation Method Therefor” (BETTA PHARMACEUTICALS CO., LTD, priority 2019, published 2022).
pIC50: −log10 of the molar value. Read-outs that look alike come from different tables or passages of the source.

Key:
[1] = molecular target: EGFR Δ19del/T790M/C797S (Homo sapiens, UniProt P00533, T790M/C797S, form not given); assay: EGFR Δ19del/T790M/C797S kinase test (mobility shift, Caliper EZ Reader); type: biochemical; settings: kinase enzymatic activity
EGFR Δ19del/T790M/C797S, sequence (P00533 with tags, fused parts or gaps DEL746-750/T790M/C797S, form open): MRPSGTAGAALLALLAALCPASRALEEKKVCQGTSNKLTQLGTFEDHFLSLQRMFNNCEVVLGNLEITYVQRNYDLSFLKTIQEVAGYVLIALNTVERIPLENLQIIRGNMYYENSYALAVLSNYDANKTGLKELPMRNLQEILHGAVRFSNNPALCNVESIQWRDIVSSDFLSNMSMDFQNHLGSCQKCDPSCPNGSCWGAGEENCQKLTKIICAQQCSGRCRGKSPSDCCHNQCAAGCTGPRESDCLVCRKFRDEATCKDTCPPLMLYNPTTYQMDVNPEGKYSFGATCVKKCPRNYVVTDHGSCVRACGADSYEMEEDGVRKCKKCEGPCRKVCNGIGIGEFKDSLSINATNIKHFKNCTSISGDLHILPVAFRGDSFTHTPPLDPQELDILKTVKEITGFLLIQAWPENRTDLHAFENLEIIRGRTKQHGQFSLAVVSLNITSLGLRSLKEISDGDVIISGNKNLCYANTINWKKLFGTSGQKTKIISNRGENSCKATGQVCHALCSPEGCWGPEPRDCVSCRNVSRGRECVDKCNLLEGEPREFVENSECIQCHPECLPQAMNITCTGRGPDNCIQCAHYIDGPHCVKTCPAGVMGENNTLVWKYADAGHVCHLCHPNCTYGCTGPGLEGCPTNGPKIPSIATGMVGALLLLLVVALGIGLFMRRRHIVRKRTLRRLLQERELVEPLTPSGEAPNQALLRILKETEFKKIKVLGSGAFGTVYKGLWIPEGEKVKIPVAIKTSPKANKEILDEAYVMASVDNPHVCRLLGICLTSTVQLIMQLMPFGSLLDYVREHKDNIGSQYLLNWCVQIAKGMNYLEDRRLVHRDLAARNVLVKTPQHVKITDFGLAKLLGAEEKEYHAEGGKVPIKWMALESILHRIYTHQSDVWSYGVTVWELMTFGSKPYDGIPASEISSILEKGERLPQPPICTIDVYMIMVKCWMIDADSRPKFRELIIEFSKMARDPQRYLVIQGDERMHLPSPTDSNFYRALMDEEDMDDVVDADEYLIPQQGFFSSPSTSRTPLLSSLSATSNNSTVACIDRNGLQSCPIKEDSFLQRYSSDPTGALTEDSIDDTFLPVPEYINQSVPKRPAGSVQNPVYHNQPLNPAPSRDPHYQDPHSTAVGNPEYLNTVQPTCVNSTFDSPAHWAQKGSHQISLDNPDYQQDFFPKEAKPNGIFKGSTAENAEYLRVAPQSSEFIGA
Experimental: Mobility variation analysis was performed to determine the affinity of the compound for EGFRΔ19del/T790M/C797S. The enzymatic reaction scheme is as follows:
1. Prepare 1* kinase buffer as follows:
2. Preparation of compound concentration gradient: The test compound was tested with an initial concentration of 3000 nM or 100 nM, diluted in a 384 source plate to a 100% DMSO solution with 100-fold final concentration, and the compound is 3-fold diluted with Precision to 10 concentrations. A dispenser Echo 550 was used to transfer 250 nL 100-fold final concentration of the compound to the target plate OptiPlate-384F.
3. Prepare 2.5-fold final concentration of kinase solution with 1×Kinase buffer;
4. Add 10 μL of 2.5-fold final concentration of kinase solution to the compound well and the positive control well; add 10 μL of 1×Kinase buffer to the negative control well.
5. Centrifuge at 1000 rpm for 30 seconds, shake the reaction plate for well mixation, and then incubate at room temperature for 10 minutes.
6. Prepare a mixture of ATP and Kinase substrate at 5/3-fold final concentration with 1×Kinase buffer.
7. Add 15 μL mixture of 5/3-fold final concentration of ATP and substrate to start reaction.
8. Centrifuge the 384-well plate at 1000 rpm for 30 seconds, shake it well and then incubate it at room temperature for corresponding time.
9. Add 30 μL of stop detection solution to stop the kinase reaction, centrifuge at 1000 rpm for 30 seconds, shake it well.
10. Read conversion rate with Caliper EZ Reader.
% Inhibition=((Conversion%_max−Conversion%_sample)/(Conversion%_max−Conversion%_min))*100
Wherein: Conversion%_sample is the sample conversion rate reading; Conversion%_min: Mean value of negative control wells, representing the conversion rate reading of wells without enzymatic activity; Conversion%_max: Mean value of positive control wells, representing the conversion rate reading of wells without compound inhibition.
The dose-effect curve was fitted with concentration log value as X-axis and percentage inhibition rate as Y-axis. Log (inhibitor) vs. Response—Variable Slope of GraphPad Prism 5 was used to fit the dose-effect curve to obtain IC50 value of enzymatic activity for each compound.
The calculation formula is as Y=Bottom (Top−Bottom)/(1+10^((LogIC50−X)*HillSlope)).
As illustrated in examples, IC50 value is within the following range for the compound of the present invention: “A” represents “IC50≤1nM”; “B” represents “1 nM<IC50≤100nM”.

[2] = molecular target: Ba/F3-Δ19del/T790M/C797S (Homo sapiens, UniProt P00533, T790M/C797S, cells depend on it, form not given); assay: Ba/F3-Δ19del/T790M/C797S cell proliferation assay (CellTiter Glo, 72 h); type: cell-based; settings: CTG, read-out: BaF3 Δ19del/T790M/C797S IC50
Ba/F3-Δ19del/T790M/C797S, sequence (P00533 with tags, fused parts or gaps DEL746-750/T790M/C797S, form open): as above
Experimental: (§1) Cell line: Ba/F3 cells with stable overexpression of Δ19del/T790M/C797S or L858R/T790M/C797S mutant genes, named Ba/F3-Δ19del/T790M/C797S and Ba/F3-L858R/T790M/C797S, and A431 EGFR wild-type cell line.
(§2) RPMI 1640 and 10% FBS and 1% PS; _EM, 10% PBS and 1% PS
(§3) a) Dilute the test compound (20 mM stock solution) to 10 mM with 100% DMSO as the starting concentration, and then serially dilute 3 times with a “9+0” concentration in 96-well dilution plate (Cat #P-05525, Labcyte);
(§4) b) Dilute compound solution thereof to 1:100 in medium to prepare 10-fold working solution;
(§5) a) Centrifuge the growth cells in logarithmic phase at 1000 rpm for 5 minutes, resuspend the cells in culture medium, and then count the cells;
(§6) b) Inoculate the cells into a 96-well cell culture plate with a density of 2000 cells/well;
(§7) a) The compound prepared in Step 2 was added to a cell plate with 15 μL per well at final concentrations of 1000, 333, 111.1, 37, 12.3, 4.1, 1.4, 0.5, 0.2, and 0 nM. The final concentration of DMSO was 0.1%. The blank control well is with medium (0.1% DMSO).
(§8) b) Incubate cells in an incubatorother 72 hours;
(§9) a) Take out the 96-well cell culture plate and add 50 μl CTG reagent (CellTiter Glo kit, promega, Cat #G7573);
(§10) b) Shake the plate for 2 minutes and let cool at room temperature for 10 minutes,
(§11) c) Read luminous signal value with Perkin Elmer reader.
(§12) Analysis of Experimental Data
(§13) The data were analyzed by GraphPad Prism 6.0 software to obtain the fitting curve of compound activity.
(§14) Fining compound IC50 from nonlinear regression equation:
(§15) Y=Min+(Max−Min)/(1+10^((LogIC50−X)*slope));
(§16) X: Logarithm of compound concentration; Y: luminous signal
(§17) As illustrated in examples, IC50 value is within the following range for the compound of the present invention: “A” represents “IC50≤50 nM”; “B” represents “50 nM<IC50<100 nM”.

[3] = test system: A431 EGFR wild-type cell line; assay: A431 EGFR wild-type cell proliferation assay (CellTiter Glo, 72 h); type: cell-based; settings: Homo sapiens, A-431, CTG, read-out: A431 EGFR WT IC50
Experimental: as §1, §2, §3, §4, §5, §6, §7, §8, §9, §10, §11, §12, §13, §14, §15, §16, §17

[4] = molecular target: Ba/F3-L858R/T790M/C797S (Homo sapiens, UniProt P00533, T790M/C797S/L858R, cells depend on it); assay: Ba/F3-L858R/T790M/C797S cell proliferation assay (CellTiter Glo, 72 h); type: cell-based; settings: CTG, read-out: BaF3 L858R/T790M/C797S IC50
Ba/F3-L858R/T790M/C797S, sequence (P00533 whole entry T790M/C797S/L858R): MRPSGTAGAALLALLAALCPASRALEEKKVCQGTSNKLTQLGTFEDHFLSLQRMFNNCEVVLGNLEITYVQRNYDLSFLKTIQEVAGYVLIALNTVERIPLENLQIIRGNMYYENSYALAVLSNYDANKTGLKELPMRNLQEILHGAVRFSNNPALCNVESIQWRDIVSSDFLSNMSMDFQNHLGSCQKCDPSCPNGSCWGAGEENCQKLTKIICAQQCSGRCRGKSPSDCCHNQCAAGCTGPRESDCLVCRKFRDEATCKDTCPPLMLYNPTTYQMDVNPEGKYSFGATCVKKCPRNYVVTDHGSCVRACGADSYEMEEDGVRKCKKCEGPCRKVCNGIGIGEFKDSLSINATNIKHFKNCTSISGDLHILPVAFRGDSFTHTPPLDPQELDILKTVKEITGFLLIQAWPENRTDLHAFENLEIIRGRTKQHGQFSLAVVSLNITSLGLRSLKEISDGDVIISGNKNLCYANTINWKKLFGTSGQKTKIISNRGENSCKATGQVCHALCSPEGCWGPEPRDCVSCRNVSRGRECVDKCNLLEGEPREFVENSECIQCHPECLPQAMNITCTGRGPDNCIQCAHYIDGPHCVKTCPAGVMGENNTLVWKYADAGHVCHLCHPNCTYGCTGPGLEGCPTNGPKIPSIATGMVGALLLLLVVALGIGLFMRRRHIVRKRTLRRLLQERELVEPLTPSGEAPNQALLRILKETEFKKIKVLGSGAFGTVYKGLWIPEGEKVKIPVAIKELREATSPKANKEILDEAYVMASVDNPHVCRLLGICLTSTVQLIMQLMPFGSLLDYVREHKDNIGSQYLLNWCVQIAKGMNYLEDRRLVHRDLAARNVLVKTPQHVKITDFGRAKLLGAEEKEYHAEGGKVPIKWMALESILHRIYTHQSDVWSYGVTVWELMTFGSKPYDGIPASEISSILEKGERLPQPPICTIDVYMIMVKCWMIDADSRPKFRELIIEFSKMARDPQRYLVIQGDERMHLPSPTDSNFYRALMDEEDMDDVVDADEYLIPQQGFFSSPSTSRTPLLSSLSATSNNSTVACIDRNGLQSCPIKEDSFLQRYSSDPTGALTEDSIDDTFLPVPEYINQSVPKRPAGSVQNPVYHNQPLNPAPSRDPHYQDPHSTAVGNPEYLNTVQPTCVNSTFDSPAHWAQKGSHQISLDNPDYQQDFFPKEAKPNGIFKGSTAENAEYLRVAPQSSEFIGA
Experimental: as §1, §2, §3, §4, §5, §6, §7, §8, §9, §10, §11, §12, §13, §14, §15, §16, §17

Structure (SMILES) | pIC50 ([1]; numeric values) | GI50 ([2]; numeric values) [nM] | pIC50 [3] | GI50 ([4]; numeric values) [nM] | GI50 ([2]; class symbols) [nM] | pIC50 ([1]; class symbols) | GI50 ([4]; class symbols) [nM]
CCn1cc(-c2cc(Nc3nccc(Nc4ccc(C)c(C)c4P(C)(C)=O)n3)c(OC)cc2N2CCOCC2)cn1 [Compound 23, (6-(2-(5-((1-Ethyl-1hydro-pyrazol-4-yl)-2-methoxy-4-morpholinophenyl)amino)pyrimidine-4-amino)-2,3dimethylphenyl) dimethylphosphine oxide] | 8.85 |  |  |  |  |  | 
COc1cc(N2CCN(C3CCCC3)CC2)c(-c2cnn(C)c2)cc1Nc1ncc(Br)c(Nc2ccc3nccnc3c2P(C)(C)=O)n1 [Compound 25, (6-((5-Bromo-2-((4-(4-cyclopentylpiperazine-1yl)-2-methoxy-5-(1-methyl-1H-pyrozole-4-yl)phenyl)amino)pyrimidin-4-yl)amino)quinoxalin-5-yl) dimethylphosphine oxide] | 9.52 | 2.5 | 6.97 | 4 |  |  | 
COc1cc(N2CCC(N3CCN(C)CC3)CC2)c(-c2cnn(C)c2)cc1Nc1ncc(Br)c(Nc2ccc(C3CC3)c(C)c2P(C)(C)=O)n1 [Compound 12] |  |  |  |  | ≤ 50 | ≥ 9.00 | ≤ 50
COc1cc(N2CCC(N(C)C)CC2)c(-c2cnn(C)c2)cc1Nc1ncc(Cl)c(Nc2ccc(C)c(C)c2P(C)(C)=O)n1 [Compound 4, (6-((5-Chloro-2-((4-(4-(dimethylamino)piperidine-1-yl)-2-methoxy-5-(1-methyl-1H-pyrazole-4-yl)phenyl)amino)pyrimidine-4-yl)amino)-2,3-dimethylphenyl)dimethylphosphine oxide] |  | 10.2 | 6.72 | 14.9 |  | ≥ 9.00 | 
COc1cc(N2CCC(N3CCCCC3)CC2)c(-c2cnn(C)c2)cc1Nc1ncc(Br)c(Nc2ccc(C)c(C)c2P(C)(C)=O)n1 [Compound 15, (6-((2-((4-([1,4′-Bipiperidine]-1′-yl)-2-methoxy-5-(1-methyl-1H-pyrazole-4-yl)phenyl)amino)-5-bromopyrimidine-4-yl)amino)-2,3-dimethylphenyl)dimethylphosphine oxide] |  |  |  |  | ≤ 50 | ≥ 9.00 | ≤ 50
COc1cc(N2CCC(N3CCCC3)CC2)c(-c2cnn(C)c2)cc1Nc1ncc(Cl)c(Nc2ccc(C)c(C)c2P(C)(C)=O)n1 [Compound 6] |  |  |  |  | ≤ 50 | ≥ 9.00 | ≤ 50
CCn1cc(-c2cc(Nc3ncc(Br)c(Nc4ccc5nc(C6CC6)ccc5c4P(C)(C)=O)n3)c(OC)cc2N2CCOCC2)cn1 [Compound 24] | 7.77 |  |  |  |  |  | 
COc1cc(N2CCN3CCCCC3C2)c(-c2cnn(C)c2)cc1Nc1ncc(Cl)c(Nc2ccc3nccnc3c2P(C)(C)=O)n1 (stereo in doubt) [Compound 18] | 9.70 | 6.7 | 6.95 | 8.2 |  |  | 
COc1cc(N2CCN3CCCC[C@@H]3C2)c(-c2cnn(C)c2)cc1Nc1ncc(Cl)c(Nc2ccc(C)c(C)c2P(C)(C)=O)n1 [Compound 8, (R)-(6-((5-chloro-2-((2-methoxy-5-(1-methyl-1H-pyrazol-4-yl)-4-(octahydro-2hydro-Pyridine[1,2-a]pyrazine-2-yl)phenyl)amino)pyrimidine-4-yl)amino)-2,3-dimethylphenyl)dimethylphosphine oxide] |  |  |  |  | ≤ 50 | ≥ 9.00 | ≤ 50
CCn1cc(-c2cc(Nc3ncc(Br)c(Nc4ccc5nccnc5c4P(C)(C)=O)n3)c(OC)cc2N2CCC(N3CCN(C)CC3)CC2)cn1 [Compound 19] | 9.52 | 1 | 6.87 | 1.3 |  |  | 
COc1cc(N2CCC(N(C)C)CC2)c(-c2cnn(C)c2)cc1Nc1ncc(Cl)c(Nc2ccc3nccnc3c2P(C)(C)=O)n1 [Compound 2] | 9.70 | 6.5 | 6.96 | 18.3 |  |  | 
CCn1cc(-c2cc(Nc3ncc(Br)c(Nc4ccc(C)c(C)c4P(C)(C)=O)n3)c(OC)cc2N2CCOCC2)cn1 [Compound 21] | 9.52 | 0.7 | 6.33 | 3.6 |  |  | 
COc1cc(N2CCC3(CC2)CN(C)C3)c(-c2cnn(C)c2)cc1Nc1ncc(Cl)c(Nc2ccc(C)c(C)c2P(C)(C)=O)n1 [Compound 7] |  |  |  |  | 50 to 100 | 7.00 to 9.00 | 50 to 100
COc1cc(N2CCC(N3CCN(C)CC3)CC2)c(-c2cnn(C)c2)cc1Nc1ncc(Br)c(Nc2ccc(C)c(C)c2P(C)(C)=O)n1 [Compound 14, (6-((5-Bromo-2-((2-methoxy-5-(1-methyl-1h-pyrazol-4-yl)-4-(4-(4-methylpiperazine-1-yl)piperidine-1-yl)phenyl)amino)pyrimidine-4-yl)amino)-2,3-dimethylphenyl)dimethylphosphine oxide] |  |  |  |  | ≤ 50 | ≥ 9.00 | ≤ 50
COc1cc(N2CCC(N3CCCCC3)CC2)c(-c2cnn(C)c2)cc1Nc1ncc(Br)c(Nc2ccc3nccnc3c2P(C)(C)=O)n1 [Compound 11, (6-((2-((4-([1,4′-Bipiperidine]-1′-yl)-2-methoxy-5-(1-methyl-1H-pyrazole-4-yl)phenyl)amino)-5-bromopyrimidin-4-yl)amino)quinoxalin-5-yl)dimethylphosphine oxide] |  |  |  |  | ≤ 50 | ≥ 9.00 | ≤ 50
COc1cc(N2CCN(C3CCCC3)CC2)c(-c2cnn(C)c2)cc1Nc1ncc(Br)c(Nc2ccc3nc(C4CC4)ccc3c2P(C)(C)=O)n1 [Compound 27, (6-((5-Bromo-2-((4-(4-cyclopentylpiperazine-1-yl)-2-methoxy-5-(1-methyl-1H-pyrazole-4-Yl)phenyl)amino)pyrimidin-4-yl)amino)-2-cyclopropylquinolin-5-yl)dimethylphosphine oxide] | 8.89 |  | 5.93 | 8.7 |  |  | 
COc1cc(N2CCC(N3CCCCC3)CC2)c(-c2cnn(C)c2)cc1Nc1ncc(Br)c(Nc2ccc(C3CC3)c(C)c2P(C)(C)=O)n1 [Compound 13] |  |  |  |  | ≤ 50 | ≥ 9.00 | ≤ 50
COc1cc(N2CCOCC2)c(-c2cnn(C)c2)cc1Nc1ncc(Br)c(Nc2ccc3nccnc3c2P(C)(C)=O)n1 [Compound 16] |  |  |  |  | ≤ 50 | ≥ 9.00 | ≤ 50
COc1cc(N2CCC(N3CCN(C)CC3)CC2)c(-c2cnn(C)c2)cc1Nc1ncc(Br)c(Nc2ccc3nccnc3c2P(C)(C)=O)n1 [Compound 10] |  |  |  |  | ≤ 50 | ≥ 9.00 | ≤ 50
